The text below walks through data of patent publication US11998585B2, “Methods and compositions for increasing the dose of a chemotherapeutic agent” (Stealth BioTherapeutics Inc., priority 2012, dated 2024).

This data set has as its system vincristine-induced hyperalgesia in rats. The data set is described as follows: Vincristine-induced hyperalgesia in rats, electronic Von Frey test (paw-withdrawal threshold). Format: in vivo, Sprague Dawley rats. The protocol: Female Sprague Dawley rats were divided randomly into 5 groups (n=10), according to Table 7. Groups 2-4 were administered Vincristine 0.10 mg/kg injected intravenously (i.v.) via tail vein followed by a bolus injection of 0.1 ml PBS vehicle, once daily for 14 days. Group 1 was administered 1 ml/kg PBS vehicle alone according to the same schedule. D-Arg-2′6′-dimethyltyrosine-Lys-Phe-NH2 10 mg/kg was administered subcutaneously (s.c.) 15 minutes prior to vincristine administration for the full 14-day period (Group 3), or for a period of two weeks beginning at day 15 (Group 4). Group 5 was administered Vincristine 0.10 mg/kg injected i.v. via tail vein, followed by a bolus injection of 0.1 ml PBS vehicle once daily for 28 days, and D-Arg-2′6′-dimethyltyrosine-Lys-Phe-NH2 10 mg/kg administered s.c. for a period of 14 days beginning at day 15.
Mechanical nociceptive threshold of paw-withdrawal was measured every two days using an electronic Von Frey test. Results are shown in FIG. 1 and FIG. 2 as means±SEM. One-way ANOVA with post-hoc test or t-test were used to assess the statistical significance, with p<0.05 is considered statistically significant. In FIG. 1, data for subjects receiving vincristine in the absence of simultaneous D-Arg-2′6′-dimethyltyrosine-Lys-Phe-NH2 (Groups 2, 4, 5) is shown collectively as “Group A.”

Entries after “also recorded” stand apart in the source; their conditions may differ.

Regarding `CC[C@]1(O)C[C@H]2CN(CCc3c([nH]c4ccccc34)[C@@](C(=O)OC)(c3cc4c(cc3OC)N(C=O)[C@H]3[C@@](O)(C(=O)OC)[C@H](OC(C)=O)[C@]5(CC)C=CCN6CC[C@]43[C@@H]65)C2)C1` [vincristine, reference compound], the “pain threshold after withdrawal of vincristine, no peptide” value (Group 2: vincristine 0.10 mg/kg i.v. 14 days + PBS vehicle, followed after day 14, FIG. 2) is “continued to show a decline in pain thereshold, reaching a low point at day 21, and showed a moderate improvement beginning at day 22”. Where the note is “vincristine 0.10 mg/kg i.v. daily for 14 days without peptide, vs vehicle-only control (Group 1)”, the “pain threshold (mechanical nociceptive threshold of paw-withdrawal) under vincristine” value is given as “a decrease in pain threshold response compared to a vehicle-only control”.

Consider D-Arg-2′6′-dimethyltyrosine-Lys-Phe-NH2, for which, under “FIG. 2, rats, Groups 4 and 5”, the “treatment of vincristine-induced hyperalgesia” value is “effective in the treatment of vincristine-induced hyperalgesia in rats”. Where the note is “Group 3: peptide 10 mg/kg s.c. daily 15 min prior to vincristine 0.10 mg/kg i.v. for 14 days, vs vehicle-only control (Group 1), FIG. 1”, the “pain threshold (mechanical nociceptive threshold of paw-withdrawal), prevention” value is recorded as “not significantly different from the vehicle-only control; also recorded: effective in the prevention of vincristine-induced hyperalgesia in rats”. The “pain threshold (mechanical nociceptive threshold of paw-withdrawal), treatment after withdrawal of vincristine” value (Group 4: vincristine 0.10 mg/kg i.v. 14 days, then peptide 10 mg/kg s.c. daily for two weeks beginning at day 15, FIG. 2) is recorded as “improved pain threshold as soon as day 15, with continued improvement through day 25”. For the same molecule, the “pain threshold (mechanical nociceptive threshold of paw-withdrawal), treatment while vincristine continues” value (Group 5: vincristine 0.10 mg/kg i.v. 28 days, peptide 10 mg/kg s.c. daily for 14 days beginning at day 15, FIG. 2) was “an arrest of the downward trend in pain threshold evident in the initial 14 day period, followed by an improvement in pain threshold beginning at day 16”.
